Laboratory results from US9732119B2, “Immunomodulators” (BRISTOL-MYERS SQUIBB COMPANY, priority 2014, dated 2017).

target: T1, PD-1-Ig binding to PD-L1-TVMV-His (PD-L1-His) (Homo sapiens, UniProt Q9NZQ7); assay: PD-1/PD-L1 Homogenous Time-Resolved Fluorescence (HTRF) binding assay; conditions: PD-1-Ig (20 nM) / PD-L1-His (10 nM); numeric values
T1 construct: hPDL1(19-239)-TVMV-His; made in house; host or cells: HEK293T cells
In short: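 In dPBS with 0.1% BSA and 0.05% Tween-20, inhibitors were preincubated 15 min with 10 nM PD-L1-His before 20 nM PD-1-Ig was added for another 15 min. Binding read by time-resolved FRET between Eu-cryptate anti-Ig (1 nM) and APC anti-His (20 nM).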

T1 sequence (Q9NZQ7 with tags, fused parts or gaps): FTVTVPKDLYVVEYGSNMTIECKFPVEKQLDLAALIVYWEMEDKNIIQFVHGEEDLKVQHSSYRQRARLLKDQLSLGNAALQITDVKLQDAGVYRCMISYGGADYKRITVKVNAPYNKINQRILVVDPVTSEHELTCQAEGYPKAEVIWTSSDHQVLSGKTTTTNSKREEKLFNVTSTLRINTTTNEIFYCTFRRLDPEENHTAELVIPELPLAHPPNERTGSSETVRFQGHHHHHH

IC50	SMILES
5 nM	CCCC[C@H]1C(=O)N(C)[C@@H](CCCC)C(=O)N[C@@H](CC(C)C)C(=O)N[C@H](C(N)=O)CNCC(=O)N[C@@H](Cc2ccc(F)cc2)C(=O)N2CCCC[C@H]2C(=O)N[C@@H](CC(=O)O)C(=O)N2CCC[C@H]2C(=O)N[C@@H](CCC(N)=O)C(=O)N[C@@H](CCC(N)=O)C(=O)N2C[C@H](O)C[C@H]2C(=O)N[C@@H](Cc2c[nH]c3ccccc23)C(=O)N[C@@H](CC(N)=O)C(=O)N[C@@H](Cc2cn(CC(=O)O)c3ccccc23)C(=O)N1C [Example 9041]

same assay, conditions: PD-1-Ig (20 nM) / PD-L1-His (10 nM); range classes

SMILES	IC50
CCCC[C@H]1C(=O)N(C)[C@@H](CCCC)C(=O)N[C@@H](CC(C)C)C(=O)N[C@H](C(N)=O)CNCC(=O)N[C@@H](Cc2ccc(F)cc2)C(=O)N2CCCC[C@H]2C(=O)N[C@@H](CC(=O)O)C(=O)N2CCC[C@H]2C(=O)N[C@@H](CCC(N)=O)C(=O)N[C@@H](CC(C)C)C(=O)N2C[C@H](O)C[C@H]2C(=O)N[C@@H](Cc2c[nH]c3ccccc23)C(=O)N[C@@H](CC(N)=O)C(=O)N[C@@H](Cc2cn(CC(=O)O)c3ccccc23)C(=O)N1C [Example 9038]	1 to 9.9 nM
CCCC[C@H]1C(=O)N(C)[C@@H](CCCC)C(=O)N[C@@H](CC(C)C)C(=O)N[C@H](C(N)=O)CNCC(=O)N[C@@H](Cc2ccc(F)cc2)C(=O)N2CCCC[C@H]2C(=O)N[C@@H](CC(=O)O)C(=O)N2CCC[C@H]2C(=O)N[C@@H](CCC(N)=O)C(=O)N[C@@H](CC(=O)O)C(=O)N2C[C@H](O)C[C@H]2C(=O)N[C@@H](Cc2c[nH]c3ccccc23)C(=O)N[C@@H](CC(N)=O)C(=O)N[C@@H](Cc2cn(CC(=O)O)c3ccccc23)C(=O)N1C [Example 9039]	1 to 9.9 nM
CCCC[C@H]1C(=O)N(C)[C@@H](CCCC)C(=O)N[C@@H](CC(C)C)C(=O)N[C@H](C(N)=O)CNCC(=O)N[C@@H](Cc2ccc(F)cc2)C(=O)N2CCCC[C@H]2C(=O)N[C@@H](CC(=O)O)C(=O)N2CCC[C@H]2C(=O)N[C@@H](CCC(N)=O)C(=O)N[C@@H](CCC(=O)O)C(=O)N2C[C@H](O)C[C@H]2C(=O)N[C@@H](Cc2c[nH]c3ccccc23)C(=O)N[C@@H](CC(N)=O)C(=O)N[C@@H](Cc2cn(CC(=O)O)c3ccccc23)C(=O)N1C [Example 9040]	1 to 9.9 nM
CCCC[C@H]1C(=O)N(C)[C@@H](CCCC)C(=O)N[C@@H](CCC(=O)O)C(=O)N[C@H](C(N)=O)CNCC(=O)N[C@@H](Cc2ccc(O)cc2)C(=O)N2CCCC[C@H]2C(=O)N[C@@H](CC(N)=O)C(=O)N2CCC[C@H]2C(=O)N[C@@H](CCC(N)=O)C(=O)N[C@@H](CC(C)C)C(=O)N2C[C@H](O)C[C@H]2C(=O)N[C@@H](Cc2c[nH]c3ccccc23)C(=O)N[C@@H](CC(N)=O)C(=O)N[C@@H](Cc2cn(CC(=O)O)c3ccccc23)C(=O)N1C [Example 9042]	1 to 9.9 nM
CCCC[C@H]1C(=O)N(C)[C@@H](CCCC)C(=O)N[C@@H](CCC(=O)O)C(=O)N[C@H](C(N)=O)CNCC(=O)N[C@@H](Cc2ccc(O)cc2)C(=O)N2CCCC[C@H]2C(=O)N[C@@H](CC(N)=O)C(=O)N2CCC[C@H]2C(=O)N[C@@H](CCC(N)=O)C(=O)N[C@@H](CC(=O)O)C(=O)N2C[C@H](O)C[C@H]2C(=O)N[C@@H](Cc2c[nH]c3ccccc23)C(=O)N[C@@H](CC(N)=O)C(=O)N[C@@H](Cc2cn(CC(=O)O)c3ccccc23)C(=O)N1C [Example 9043]	1 to 9.9 nM
CCCC[C@H]1C(=O)N(C)[C@@H](CCCC)C(=O)N[C@@H](CCC(=O)O)C(=O)N[C@H](C(N)=O)CNCC(=O)N[C@@H](Cc2ccc(O)cc2)C(=O)N2CCCC[C@H]2C(=O)N[C@@H](CC(N)=O)C(=O)N2CCC[C@H]2C(=O)N[C@@H](CCC(N)=O)C(=O)N[C@@H](CCC(=O)O)C(=O)N2C[C@H](O)C[C@H]2C(=O)N[C@@H](Cc2c[nH]c3ccccc23)C(=O)N[C@@H](CC(N)=O)C(=O)N[C@@H](Cc2cn(CC(=O)O)c3ccccc23)C(=O)N1C [Example 9044]	1 to 9.9 nM
CCCC[C@H]1C(=O)N(C)[C@@H](CCCC)C(=O)N[C@@H](CCC(=O)O)C(=O)N[C@H](C(N)=O)CNCC(=O)N[C@@H](Cc2ccc(O)cc2)C(=O)N2CCCC[C@H]2C(=O)N[C@@H](CC(N)=O)C(=O)N2CCC[C@H]2C(=O)N[C@@H](CCC(N)=O)C(=O)N[C@@H](CCC(N)=O)C(=O)N2C[C@H](O)C[C@H]2C(=O)N[C@@H](Cc2c[nH]c3ccccc23)C(=O)N[C@@H](CC(N)=O)C(=O)N[C@@H](Cc2cn(CC(=O)O)c3ccccc23)C(=O)N1C [Example 9045]	1 to 9.9 nM

More lines, now with the values ahead:

IC50	SMILES
1 to 9.9 nM	CCCC[C@H]1C(=O)N(C)[C@@H](CCCC)C(=O)N[C@@H](CC(C)C)C(=O)N[C@H](C(N)=O)CNCC(=O)N[C@@H](Cc2ccc(F)cc2)C(=O)N2CCCC[C@H]2C(=O)N[C@@H](CC(N)=O)C(=O)N2CCC[C@H]2C(=O)N[C@@H](CCC(N)=O)C(=O)N[C@@H](CC(=O)O)C(=O)N2C[C@H](O)C[C@H]2C(=O)N[C@@H](Cc2c[nH]c3ccccc23)C(=O)N[C@@H](CC(N)=O)C(=O)N[C@@H](Cc2cn(CC(=O)O)c3ccccc23)C(=O)N1C [Example 9031]
1 to 9.9 nM	CCCC[C@H]1C(=O)N(C)[C@@H](CCCC)C(=O)N[C@@H](CC(C)C)C(=O)N[C@H](C(N)=O)CNCC(=O)N[C@@H](Cc2ccc(F)cc2)C(=O)N2CCCC[C@H]2C(=O)N[C@@H](CC(N)=O)C(=O)N2CCC[C@H]2C(=O)N[C@@H](CCC(N)=O)C(=O)N[C@@H](CCC(=O)O)C(=O)N2C[C@H](O)C[C@H]2C(=O)N[C@@H](Cc2c[nH]c3ccccc23)C(=O)N[C@@H](CC(N)=O)C(=O)N[C@@H](Cc2cn(CC(=O)O)c3ccccc23)C(=O)N1C [Example 9032]
1 to 9.9 nM	CCCC[C@H]1C(=O)N(C)[C@@H](CCCC)C(=O)N[C@@H](CC(C)C)C(=O)N[C@H](C(N)=O)CNCC(=O)N[C@@H](Cc2ccc(F)cc2)C(=O)N2CCCC[C@H]2C(=O)N[C@@H](CC(N)=O)C(=O)N2CCC[C@H]2C(=O)N[C@@H](CCC(N)=O)C(=O)N[C@@H](CCC(N)=O)C(=O)N2C[C@H](O)C[C@H]2C(=O)N[C@@H](Cc2c[nH]c3ccccc23)C(=O)N[C@@H](CC(N)=O)C(=O)N[C@@H](Cc2cn(CC(=O)O)c3ccccc23)C(=O)N1C [Example 9033]
1 to 9.9 nM	CCCC[C@H]1C(=O)N(C)[C@@H](CCCC)C(=O)N[C@@H](CC(C)C)C(=O)N[C@H](C(N)=O)CNCC(=O)N[C@@H](Cc2ccc(O)cc2)C(=O)N2CCCC[C@H]2C(=O)N[C@@H](CC(=O)O)C(=O)N2CCC[C@H]2C(=O)N[C@@H](CCC(N)=O)C(=O)N[C@@H](CC(C)C)C(=O)N2C[C@H](O)C[C@H]2C(=O)N[C@@H](Cc2c[nH]c3ccccc23)C(=O)N[C@@H](CC(N)=O)C(=O)N[C@@H](Cc2cn(CC(=O)O)c3ccccc23)C(=O)N1C [Example 9034]
1 to 9.9 nM	CCCC[C@H]1C(=O)N(C)[C@@H](CCCC)C(=O)N[C@@H](CC(C)C)C(=O)N[C@H](C(N)=O)CNCC(=O)N[C@@H](Cc2ccc(O)cc2)C(=O)N2CCCC[C@H]2C(=O)N[C@@H](CC(=O)O)C(=O)N2CCC[C@H]2C(=O)N[C@@H](CCC(N)=O)C(=O)N[C@@H](CC(=O)O)C(=O)N2C[C@H](O)C[C@H]2C(=O)N[C@@H](Cc2c[nH]c3ccccc23)C(=O)N[C@@H](CC(N)=O)C(=O)N[C@@H](Cc2cn(CC(=O)O)c3ccccc23)C(=O)N1C [Example 9035]
1 to 9.9 nM	CCCC[C@H]1C(=O)N(C)[C@@H](CCCC)C(=O)N[C@@H](CC(C)C)C(=O)N[C@H](C(N)=O)CNCC(=O)N[C@@H](Cc2ccc(O)cc2)C(=O)N2CCCC[C@H]2C(=O)N[C@@H](CC(=O)O)C(=O)N2CCC[C@H]2C(=O)N[C@@H](CCC(N)=O)C(=O)N[C@@H](CCC(N)=O)C(=O)N2C[C@H](O)C[C@H]2C(=O)N[C@@H](Cc2c[nH]c3ccccc23)C(=O)N[C@@H](CC(N)=O)C(=O)N[C@@H](Cc2cn(CC(=O)O)c3ccccc23)C(=O)N1C [Example 9037]
